Measurements from patent US11427549B2, “Pyrimidinyloxy benzo-fused compounds as herbicides” (FMC Corporation, priority 2017, dated 2022).

How the values were obtained:
[1] = tested on: ryegrass, Italian (Italian ryegrass, Lolium multiflorum); experiment: Test A postemergence, ryegrass, Italian; format: in vivo; details: Lolium multiflorum, post-emergence, 240 h, 0 to 100 scale (0 no effect, 100 complete control), read-out: Plant response rating, Ryegrass, Italian; for pest or weed control at 31 g/ha: 31 g ai/ha; for pest or weed control at 125 g/ha: 125 g ai/ha
[2] = tested on: foxtail, green (green foxtail, Setaria viridis); experiment: Test A postemergence, foxtail, green; format: in vivo; details: Setaria, post-emergence, 240 h, 0 to 100 scale (0 no effect, 100 complete control), read-out: Plant response rating, Foxtail, Green; for pest or weed control at 31 g/ha: 31 g ai/ha; for pest or weed control at 125 g/ha: 125 g ai/ha
[3] = tested on: galium (catchweed bedstraw, Galium aparine); experiment: Test A postemergence, galium; format: in vivo; details: Galium, post-emergence, 240 h, 0 to 100 scale (0 no effect, 100 complete control), read-out: Plant response rating, Galium; for pest or weed control at 31 g/ha: 31 g ai/ha; for pest or weed control at 125 g/ha: 125 g ai/ha
[4] = tested on: wheat (Triticum aestivum); experiment: Test A postemergence, wheat; format: in vivo; details: Triticum aestivum, post-emergence, 240 h, 0 to 100 scale (0 no effect, 100 complete control), read-out: Plant response rating, Wheat; for plant injury at 31 g/ha: 31 g ai/ha; for plant injury at 125 g/ha: 125 g ai/ha
corn (Zea mays) = experiment: Test A postemergence, corn; format: in vivo; details: Zea mays, post-emergence, 240 h, 0 to 100 scale (0 no effect, 100 complete control); for Corn plant response rating (crop injury, 0 = no effect, 100 = complete kill) at 31 g/ha: 31 g ai/ha; for Corn plant response rating (crop injury, 0 = no effect, 100 = complete kill) at 125 g/ha: 125 g ai/ha
[5] = tested on: ducksalad (Heteranthera limosa); experiment: Test B flooded paddy test, ducksalad; details: Heteranthera limosa, read-out: Plant response rating, Ducksalad (0 to 100 scale, 0 is no effect, 100 is complete control)
[6] = tested on: pigweed (Amaranthus retroflexus); experiment: Test A preemergence, pigweed; format: in vivo; details: Amaranthus retroflexus, pre-emergence, 240 h, 0 to 100 scale (0 no effect, 100 complete control), read-out: Plant response rating, Pigweed; for pest or weed control at 31 g/ha: 31 g ai/ha; for pest or weed control at 125 g/ha: 125 g ai/ha
rice (Oryza sativa) = experiment: Test B flooded paddy test, rice; details: Oryza sativa, read-out: Plant response rating, Rice (0 to 100 scale, 0 is no effect, 100 is complete control)
[7] = tested on: pigweed (Amaranthus retroflexus); experiment: Test A postemergence, pigweed; format: in vivo; details: Amaranthus retroflexus, post-emergence, 240 h, 0 to 100 scale (0 no effect, 100 complete control), read-out: Plant response rating, Pigweed; for pest or weed control at 31 g/ha: 31 g ai/ha; for pest or weed control at 125 g/ha: 125 g ai/ha
[8] = tested on: barnyardgrass (Echinochloa crus-galli); experiment: Test A preemergence, barnyardgrass; format: in vivo; details: Echinochloa crus-galli, pre-emergence, 240 h, 0 to 100 scale (0 no effect, 100 complete control), read-out: Plant response rating, Barnyardgrass; for pest or weed control at 31 g/ha: 31 g ai/ha; for pest or weed control at 125 g/ha: 125 g ai/ha
[9] = tested on: barnyardgrass (Echinochloa crus-galli); experiment: Test A postemergence, barnyardgrass; format: in vivo; details: Echinochloa crus-galli, post-emergence, 240 h, 0 to 100 scale (0 no effect, 100 complete control), read-out: Plant response rating, Barnyardgrass; for pest or weed control at 31 g/ha: 31 g ai/ha; for pest or weed control at 125 g/ha: 125 g ai/ha
[10] = tested on: ragweed (common ragweed, Ambrosia elatior); experiment: Test A postemergence, ragweed; format: in vivo; details: Ambrosia artemisiifolia, post-emergence, 240 h, 0 to 100 scale (0 no effect, 100 complete control), read-out: Plant response rating, Ragweed; for pest or weed control at 31 g/ha: 31 g ai/ha; for pest or weed control at 125 g/ha: 125 g ai/ha
[11] = tested on: ragweed (common ragweed, Ambrosia elatior); experiment: Test A preemergence, ragweed; format: in vivo; details: Ambrosia artemisiifolia, pre-emergence, 240 h, 0 to 100 scale (0 no effect, 100 complete control), read-out: Plant response rating, Ragweed; for pest or weed control at 31 g/ha: 31 g ai/ha; for pest or weed control at 125 g/ha: 125 g ai/ha
kochia (Kochia scoparia) [12] = experiment: Test A postemergence, kochia; format: in vivo; details: Bassia scoparia, post-emergence, 240 h, 0 to 100 scale (0 no effect, 100 complete control), read-out: Plant response rating, Kochia; for pest or weed control at 31 g/ha: 31 g ai/ha; for pest or weed control at 125 g/ha: 125 g ai/ha
[13] = tested on: blackgrass (Alopecurus myosuroides); experiment: Test A postemergence, blackgrass; format: in vivo; details: Alopecurus myosuroides, post-emergence, 240 h, 0 to 100 scale (0 no effect, 100 complete control), read-out: Plant response rating, Blackgrass; for pest or weed control at 31 g/ha: 31 g ai/ha; for pest or weed control at 125 g/ha: 125 g ai/ha
[14] = tested on: barnyardgrass (Echinochloa crus-galli); experiment: Test B flooded paddy test, barnyardgrass; details: Echinochloa crus-galli, read-out: Plant response rating, Barnyardgrass (0 to 100 scale, 0 is no effect, 100 is complete control)
[15] = tested on: ryegrass, Italian (Italian ryegrass, Lolium multiflorum); experiment: Test A preemergence, ryegrass, Italian; format: in vivo; details: Lolium multiflorum, pre-emergence, 240 h, 0 to 100 scale (0 no effect, 100 complete control), read-out: Plant response rating, Ryegrass, Italian; for pest or weed control at 31 g/ha: 31 g ai/ha; for pest or weed control at 125 g/ha: 125 g ai/ha
kochia (Kochia scoparia) [16] = experiment: Test A preemergence, kochia; format: in vivo; details: Bassia scoparia, pre-emergence, 240 h, 0 to 100 scale (0 no effect, 100 complete control), read-out: Plant response rating, Kochia; for pest or weed control at 31 g/ha: 31 g ai/ha; for pest or weed control at 125 g/ha: 125 g ai/ha

| Structure (SMILES) | pest or weed control at 31 g/ha [1] [%] | pest or weed control at 125 g/ha [1] [%] | pest or weed control at 31 g/ha [2] [%] | pest or weed control at 125 g/ha [2] [%] | pest or weed control at 31 g/ha [3] [%] | pest or weed control at 125 g/ha [3] [%] | plant injury at 31 g/ha [4] [%] | plant injury at 125 g/ha [4] [%] | Corn plant response rating (crop injury, 0 = no effect, 100 = complete kill) at 31 g/ha (corn (Zea mays)) [%] | Corn plant response rating (crop injury, 0 = no effect, 100 = complete kill) at 125 g/ha (corn (Zea mays)) [%] | pest or weed control at 250 g/ha [5] [%] | pest or weed control at 31 g/ha [6] [%] | pest or weed control at 125 g/ha [6] [%] | plant injury at 250 g/ha (rice (Oryza sativa)) [%] | pest or weed control at 31 g/ha [7] [%] | pest or weed control at 125 g/ha [7] [%] | pest or weed control at 31 g/ha [8] [%] | pest or weed control at 125 g/ha [8] [%] | pest or weed control at 31 g/ha [9] [%] | pest or weed control at 125 g/ha [9] [%] | other results |
| --- | --- | --- | --- | --- | --- | --- | --- | --- | --- | --- | --- | --- | --- | --- | --- | --- | --- | --- | --- | --- | --- |
| FC(F)(F)CCCC1OCc2cccc(Oc3ncc(Cl)cn3)c21 (stereo not drawn) [Compound 7, 5-chloro-2-[[1,3-dihydro-3-(4,4,4-trifluorobutyl)-4-isobenzofuranyl]oxy]-pyrimidine] | 20 | 60 | 30 | 90 | 50 | 100 | 10 | 30 | 20 | 40 | 100 | 20 | 100 | 40 | 80 | 100 | 20 | 90 | 20 | 60 | pest or weed control at 31 g/ha [10]: 0%; pest or weed control at 125 g/ha [10]: 0%; pest or weed control at 31 g/ha [11]: 0%; pest or weed control at 125 g/ha [11]: 0%; pest or weed control at 31 g/ha (kochia (Kochia scoparia) [12]): 90%; pest or weed control at 125 g/ha (kochia (Kochia scoparia) [12]): 100%; pest or weed control at 31 g/ha [13]: 10%; pest or weed control at 125 g/ha [13]: 70%; pest or weed control at 250 g/ha [14]: 40%; pest or weed control at 31 g/ha [15]: 0%; pest or weed control at 125 g/ha [15]: 50%; pest or weed control at 31 g/ha (kochia (Kochia scoparia) [16]): 0%; pest or weed control at 125 g/ha (kochia (Kochia scoparia) [16]): 100% |
| FC(F)(F)CCC1OCc2cccc(Oc3ncc(Cl)cn3)c21 (stereo not drawn) [Compound 8, 5-Chloro-2-[[1,3-dihydro-3-(3,3,3-trifluoropropyl)-4-isobenzofuranyl]oxy]pyrimidine] | 10 | 50 | 20 | 70 | 30 | 80 | 0 | 50 | 10 | 50 | 100 | 100 | 100 | 20 | 100 | 100 | 80 | 100 | 10 | 50 | pest or weed control at 31 g/ha [10]: 10%; pest or weed control at 125 g/ha [10]: 20%; pest or weed control at 31 g/ha [11]: 0%; pest or weed control at 125 g/ha [11]: 10%; pest or weed control at 31 g/ha (kochia (Kochia scoparia) [12]): 80%; pest or weed control at 125 g/ha (kochia (Kochia scoparia) [12]): 90%; pest or weed control at 31 g/ha [13]: 30%; pest or weed control at 125 g/ha [13]: 100%; pest or weed control at 250 g/ha [14]: 35%; pest or weed control at 31 g/ha [15]: 10%; pest or weed control at 125 g/ha [15]: 70%; pest or weed control at 31 g/ha (kochia (Kochia scoparia) [16]): 20%; pest or weed control at 125 g/ha (kochia (Kochia scoparia) [16]): 100% |
